# According to patent US20050234076A1, “Triazolopyrimidines” (priority 2002, published 2005):
# Legend:
# Botrytis cinerea = assay: Botrytis Test (bean)/protective; format: in vivo; conditions: 48 h, bean plants, protective spray, evaluation 2 days after inoculation, 100% = no infection, read-out: Efficacy in %
# Procedure: Botrytis Test (bean)/protective
# Solvents: 24.5 parts by weight of acetone • 24.5 parts by of dimethylacetamide
# Emulsifier: 1.0 part by weight of alkylaryl polyglycol ether
# To produce a suitable preparation of active compound, 1 part by weight of active compound is mixed with the stated amounts of solvent and emulsifier, and the concentrate is diluted with water to the desired concentration.
# To test for protective activity, young plants are sprayed with the preparation of active compound at the stated application rate. After the spray coating has dried on, 2 small pieces of agar colonized by Botrytis cinerea are placed onto each leaf. The inoculated plants are placed in a dark chamber at about 20° C. and 100% relative atmospheric humidity.
# 2 days after the inoculation the size of the infected areas on the leaves is evaluated. 0% means an efficacy which corresponds to that of the control, whereas an efficacy of 100% means that no infection is observed.
# Venturia inaequalis = assay: Venturia Test (apple)/protective; format: in vivo; conditions: 240 h, apple plants, protective spray, evaluation 10 days after inoculation, 100% = no infection, read-out: Efficacy in %
# Procedure: Venturia Test (apple)/protective Solvents: 24.5 parts by weight of acetone • 24.5 parts by weight of dimethylacetamide Emulsifier: 1.0 parts by weight alkylaryl polyglycol ether To produce a suitable preparation of active compound, 1 part by weight of active compound is mixed with the stated amounts of solvent and emulsifier, and the concentrate is diluted with water to the desired concentration. To test for protective activity, young plants are sprayed with the preparation of active compound at the stated application rate. […] The plants are then placed in a greenhouse at about 21° C. and a relative atmospheric humidity of about 90%.
chromatographic logP (physchem),SMILES,pest or weed control at 500 g/ha (Botrytis cinerea) [%],further results
–,Clc1ccc(-c2c(Cl)nc3ncnn3c2N2CCCCN2)c(Cl)c1 [drawing 97],95,–
2.75,Fc1cc(F)c(-c2c(Cl)nc3ncnn3c2N2OC3CCC2C3)c(F)c1 (stereo not shown) [Example 18],–,–
3.1,Fc1cc(F)c(-c2c(Cl)nc3ncnn3c2N2OC3CCC2C3)c(C(F)(F)F)c1 (stereo not shown) [Example 46],–,–
2.69,Clc1ccccc1-c1c(Cl)nc2ncnn2c1N1OC2CCC1C2 (stereo not shown) [Example 33],–,–
–,Fc1cccc(F)c1-c1c(Cl)nc2ncnn2c1N1CCCCN1 [drawing 95],95,–
–,Fc1ccc(-c2c(Cl)nc3ncnn3c2N2OC3CCC2C3)c(F)c1 (stereo not shown) [drawing 60],–,pest or weed control at 100 g/ha (Venturia inaequalis): 100%
–,Fc1cc(F)c(-c2c(Cl)nc3ncnn3c2N2CCC=N2)c(F)c1 [drawing 63],–,pest or weed control at 100 g/ha (Venturia inaequalis): 96%
2.34,Fc1cc(F)c(-c2c(Cl)nc3ncnn3c2N2CCC=N2)c(F)c1 [Example 11],–,–
–,Fc1cc(F)c(-c2c(Br)nc3ncnn3c2N2CCCCN2)c(F)c1 [drawing 99],100,–
–,Fc1cc(F)c(-c2c(Cl)nc3ncnn3c2N2OC3CCC2C3)c(F)c1 (stereo not shown) [drawing 81],98,–
2.74,CC1CCON1c1c(-c2c(F)cccc2Cl)c(Cl)nc2ncnn12 (stereo not shown) [Example 42],–,–
–,Fc1ccc(-c2c(Cl)nc3ncnn3c2N2CCCCO2)c(F)c1 [drawing 48],–,pest or weed control at 100 g/ha (Venturia inaequalis): 96%
2.68,Fc1cc(F)c(-c2c(Cl)nc3ncnn3c2N2CCCCN2)c(F)c1 [Example 10],–,–
2.89,Fc1ccc(-c2c(Cl)nc3ncnn3c2N2OC3CCC2C3)c(Cl)c1 (stereo not shown) [Example 44],–,–
–,Fc1cc(F)c(-c2c(Cl)nc3ncnn3c2N2CCCCN2)c(F)c1 [drawing 77],100,–
–,Clc1cccc(Cl)c1-c1c(Cl)nc2ncnn2c1N1CCCCN1 [drawing 92],99,–
–,CC1CCCON1c1c(-c2c(F)cc(F)cc2F)c(Cl)nc2ncnn12 (stereo not shown) [drawing 82],100,–
–,Fc1cc(F)c(-c2c(Cl)nc3ncnn3c2N2OC3CCC2C3)c(C(F)(F)F)c1 (stereo not shown) [drawing 78],100,–
3.23,CC1CCCON1c1c(-c2c(F)cc(F)cc2F)c(Cl)nc2ncnn12 (stereo not shown) [Example 35],–,–
–,CC1C=CCN(c2c(-c3c(F)cc(F)cc3F)c(Cl)nc3ncnn23)O1 (stereo not shown) [drawing 80],93,–

chromatographic logP (physchem),SMILES,pest or weed control at 500 g/ha (Botrytis cinerea) [%],further results
1.22,CCOC(=O)N1OCCC1C (stereo not shown) [N-ethoxycarbonyl-3-methylisoxazolidine],–,–
–,Fc1ccc(-c2c(Cl)nc3ncnn3c2N2CCCCO2)c(Cl)c1 [drawing 74],100,–
–,Fc1cc(C(F)(F)F)cc(F)c1-c1c(Cl)nc2ncnn2c1N1CCCCN1 [drawing 98],95,–
–,CC1CCCON1c1c(-c2c(F)cc(F)cc2F)c(Cl)nc2ncnn12 (stereo not shown) [drawing 54],–,pest or weed control at 100 g/ha (Venturia inaequalis): 100%
2.92,Fc1cc(F)c(-c2c(Cl)nc3ncnn3c2N2CCCCO2)c(F)c1 [Example 6],–,–
2.76,"CC1CCON1c1c(-c2c(F)cc(F)cc2F)c(Cl)nc2ncnn12 (stereo not shown) [Example 1, 5-chloro-6-(2,4,6-trifluorophenyl)-7-(3-methyl-2-isoxazolidinyl)[1,2,4]triazolo[1,5-a]pyrimidine]",–,–
–,Fc1cc(F)c(-c2c(Cl)nc3ncnn3c2N2CCCCN2)c(C(F)(F)F)c1 [drawing 68],–,pest or weed control at 100 g/ha (Venturia inaequalis): 100%
3.22,Clc1ccc(-c2c(Cl)nc3ncnn3c2N2CCCCN2)c(Cl)c1 [Example 69],–,–
2.88,Clc1cccc(Cl)c1-c1c(Cl)nc2ncnn2c1N1CCCCN1 [Example 21],–,–
–,CC1CCON1c1c(-c2c(F)cc(F)cc2F)c(Cl)nc2ncnn12 (stereo not shown) [drawing 83],100,–
–,CC1CCON1c1c(-c2c(F)cccc2Cl)c(Cl)nc2ncnn12 (stereo not shown) [drawing 87],100,–
–,Fc1cc(F)c(-c2c(Cl)nc3ncnn3c2N2CC=CCO2)c(F)c1,100,–
–,Fc1cc(F)c(-c2c(Cl)nc3ncnn3c2N2CCCCO2)c(F)c1 [drawing 73],100,–
2.59,Fc1cccc(Cl)c1-c1c(Cl)nc2ncnn2c1N1NC2CCC1C2 (stereo not shown) [Example 28],–,–
3.06,Fc1cc(F)c(-c2c(Cl)nc3ncnn3c2N2CCCCN2)c(C(F)(F)F)c1 [Example 67],–,–
–,Fc1cccc(Cl)c1-c1c(Cl)nc2ncnn2c1N1OC2CCC1C2 (stereo not shown) [drawing 86],100,–
–,Fc1cc(F)c(-c2c(Cl)nc3ncnn3c2N2Cc3ccccc3CO2)c(F)c1 [drawing 72],100,–
2.74,Fc1cccc(Cl)c1-c1c(Cl)nc2ncnn2c1N1OC2CCC1C2 (stereo not shown) [Example 34],–,–
–,Fc1ccc(-c2c(Cl)nc3ncnn3c2N2CCCCO2)c(F)c1 [drawing 75],100,–
2.67,Fc1ccc(-c2c(Cl)nc3ncnn3c2N2OC3CCC2C3)c(F)c1 (stereo not shown) [Example 43],–,–

chromatographic logP (physchem),SMILES,pest or weed control at 500 g/ha (Botrytis cinerea) [%],further results
–,Fc1cc(F)c(-c2c(Cl)nc3ncnn3c2N2CCC=N2)c(F)c1 [drawing 91],100,–
–,Fc1cccc(F)c1-c1c(Cl)nc2ncnn2c1N1CCCCO1 [drawing 85],100,–
–,Fc1cccc(Cl)c1-c1c(Cl)nc2ncnn2c1N1NC2CCC1C2 (stereo not shown) [drawing 94],100,–
3.26,Fc1cc(C(F)(F)F)cc(F)c1-c1c(Cl)nc2ncnn2c1N1CCCCN1 [Example 68],–,–
2.68,Fc1cccc(F)c1-c1c(Cl)nc2ncnn2c1N1CCCCO1 [Example 31],–,–
3.12,CC1C=CCN(c2c(-c3c(F)cc(F)cc3F)c(Cl)nc3ncnn23)O1 (stereo not shown) [Example 58],–,–
2.47,Fc1cccc(F)c1-c1c(Cl)nc2ncnn2c1N1CCCCN1 [Example 63],–,–
–,Fc1cccc(Cl)c1-c1c(Cl)nc2ncnn2c1N1CCCCN1 [drawing 76],100,–
2.65,Fc1cc(F)c(-c2c(Cl)nc3ncnn3c2N2NC3CCC2C3)c(F)c1 (stereo not shown) [Example 27],–,–
2.73,Fc1cc(F)c(-c2c(Br)nc3ncnn3c2N2CCCCN2)c(F)c1 [Example 24],–,–
3.17,CC1CCCON1c1c(-c2ccccc2Cl)c(Cl)nc2ncnn12 (stereo not shown) [Example 41],–,–
3.53,Fc1cc(F)c(-c2c(Cl)nc3ncnn3c2N2Cc3ccccc3CO2)c(F)c1 [Example 5],–,–
–,Fc1ccc(-c2c(Cl)nc3ncnn3c2N2OC3CCC2C3)c(F)c1 (stereo not shown) [drawing 88],99,–
–,Clc1ccccc1-c1c(Cl)nc2ncnn2c1N1OC2CCC1C2 (stereo not shown) [drawing 84],93,–
–,CC1CCCON1c1c(-c2ccccc2Cl)c(Cl)nc2ncnn12 (stereo not shown) [drawing 89],99,–
–,Fc1cc(F)c(-c2c(Cl)nc3ncnn3c2N2NC3CCC2C3)c(F)c1 (stereo not shown) [drawing 93],96,–
–,Fc1ccc(-c2c(Cl)nc3ncnn3c2N2OC3CCC2C3)c(Cl)c1 (stereo not shown) [drawing 90],100,–
–,Fc1cc(F)c(-c2c(Cl)nc3ncnn3c2N2CCCCN2)c(C(F)(F)F)c1 [drawing 96],100,–

SMILES,chromatographic logP (physchem),pest or weed control at 500 g/ha (Botrytis cinerea) [%],further results
Fc1cccc(Cl)c1-c1c(Cl)nc2ncnn2c1N1CCCCN1 [Example 12],2.67,–,–
Fc1ccc(-c2c(Cl)nc3ncnn3c2N2CCCCO2)c(Cl)c1 [Example 8],3.11,–,–
Fc1ccc(-c2c(Cl)nc3ncnn3c2N2CCCCO2)c(F)c1 [Example 9],2.84,–,–
